IC50 data for 26 compounds are collected here from patent USRE39634E1, “Bisarylimidazoly fatty acid amide hydrolase inhibitors” (Bristol-Myers Squibb Company, priority 2001, dated 2007).

Each structure is given as a SMILES string.

The experiment has as its target T1, human FAAH (Homo sapiens, UniProt O00519).
T1 construct: expressed in transfected cells; host or cells: H4 cells stably transfected with human FAAH (Geneticin selection); crude membrane homogenates
T1 sequence (O00519 1-579): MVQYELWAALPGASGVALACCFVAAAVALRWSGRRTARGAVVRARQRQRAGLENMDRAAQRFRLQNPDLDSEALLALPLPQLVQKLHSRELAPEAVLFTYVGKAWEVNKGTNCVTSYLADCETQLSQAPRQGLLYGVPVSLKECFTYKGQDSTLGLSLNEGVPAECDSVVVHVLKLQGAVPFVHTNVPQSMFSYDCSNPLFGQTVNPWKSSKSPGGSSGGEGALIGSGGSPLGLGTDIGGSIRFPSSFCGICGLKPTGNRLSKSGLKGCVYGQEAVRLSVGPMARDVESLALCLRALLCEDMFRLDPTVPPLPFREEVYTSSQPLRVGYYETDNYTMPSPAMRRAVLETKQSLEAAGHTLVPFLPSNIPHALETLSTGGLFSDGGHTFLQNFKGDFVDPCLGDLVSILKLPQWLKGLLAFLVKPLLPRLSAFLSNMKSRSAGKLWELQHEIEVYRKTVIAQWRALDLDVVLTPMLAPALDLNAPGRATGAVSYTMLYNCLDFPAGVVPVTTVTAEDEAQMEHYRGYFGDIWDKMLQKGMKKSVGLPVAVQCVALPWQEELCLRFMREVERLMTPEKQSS
As to the kind of experiment: Determination of FAAH activity (membrane homogenates of H4-FAAH cells, [3H]-anandamide hydrolysis). The format is biochemical. Particulars: transfected human FAAH, H4-FAAH cell membranes, 10 μM anandamide, room temperature, one hour. The procedure:
Homogenates of crude membranes were prepared from H4 cells that express transfected human FAAH (H4-FAAH cells). Briefly, cells were grown in DMEM supplemented with 10% FBS and Geneticin at a final concentration of 500 μg/ml (Gibco BRL, Rockville, Md.). Confluent cultures of H4-FAAH cells were rinsed twice with phosphate-buffered saline [138 mM NaCl, 4.1 mM KCl, 5.1 mM Na2PO4, 1.5 mM KH2PO4 (pH 7.5), 37° C.] and incubated for 5-10 min. at 4° C. in lysis buffer [1 mM sodium bicarbonate]. Cells were transferred from plates to polypropylene tubes (16×100 mm), homogenized and centrifuged at 32,000×g for 30 min. Pellets were resuspended by homogenization in lysis buffer and centrifuged at 32,000×g for 30 min. Pellets were resuspended in lysis buffer (15-20 μg protein/ml) then stored at −80° C. until needed. On the day of an experiment, membranes were diluted to 2.67 μg protein/ml in 125 mM Tris-Cl, pH 9.0
Activity of FAAH was measured using a modification of the method described by Omeir et al., 1995 (Life Sci 56:1999, 1995). Membrane homogenates (240 ng protein) were incubated at room temperature for one hour with 1.67 nM anandamide [ethanolamine 1-^3H] (American Radiolabeled Chemical Inc., St Louis, Mo.) and 10 μM anandamide (Sigma/RBI, St. Louis, Mo.) in the absence and presence of inhibitors. The reaction was stopped by the addition of 1 volume of a solution of methanol and dichloroethane (1:1). The mixture was shaken and then centrifuged at 1000×g for 15 min. to separate the aqueous and organic phases. An aliquot of the aqueous phase, containing [^3H]-ethanolamine was withdrawn and counted by scintillation spectroscopy. Data were expressed as the percentage of [^3H]-ethanolamine formed versus vehicle, after subtraction of the background radioactivity determined in the presence of 10 μM arachidonyl trifluoromethyl ketone (ATFMK), an inhibitor of FAAH. IC50 values were determined using a four-parameter logistic equation for dose-response curves.

Turning to `Cc1nc(-c2ccccc2)c(-c2ccccc2)n1CCCCCNC(=O)Oc1ccc(Cl)cc1` [Example 35, [5-(2-Methyl-4,5-diphenyl-imidazol-1-yl)-pentyl]-carbamic acid 4-chloro-phenyl ester], the IC50 fell in the range of 10 to 100 nM.

Regarding `COc1ccc(OC(=O)NCCCCCn2c(C)nc(-c3ccccc3)c2-c2ccccc2)cc1` [Example 36, [5-(2-Methyl-4,5-diphenyl-imidazol-1-yl)-pentyl]-carbamic acid 4-methoxy-phenyl ester], the IC50 was in the range of 10 to 100 nM.

In turn, `Cc1ccccc1OC(=O)NCCCCCn1c(C)nc(-c2ccccc2)c1-c1ccccc1` [Example 37, [5-(2-Methyl-4,5-diphenyl-imidazol-1-yl)-pentyl]-carbamic acid o-tolyl ester] returned an IC50 of 100 to 1000 nM.

On to `Cc1nc(-c2ccccc2)c(-c2ccccc2)n1CCCCCNC(=O)Oc1ccc(C#N)cc1` [Example 38, [5-(2-Methyl-4,5-diphenyl-imidazol-1-yl)-pentyl]-carbamic acid 4-cyano-phenyl ester], for which the IC50 lay in the range of 10 to 100 nM.

With `COc1cccc(OC)c1OC(=O)NCCCCCn1c(C)nc(-c2ccccc2)c1-c1ccccc1` [Example 39, [5-(2-Methyl-4,5-diphenyl-imidazol-1-yl)-pentyl]-carbamic acid 2,6-dimethoxy-phenyl ester], the IC50 was in the range of 1000 to 10000 nM.

Turning to `COc1ccccc1OC(=O)NCCCCCn1c(C)nc(-c2ccccc2)c1-c1ccccc1` [Example 40, [5-(2-Methyl-4,5-diphenyl-imidazol-1-yl)-pentyl]-carbamic acid 2-methoxy-phenyl ester], the IC50 lay in the range of 100 to 1000 nM.

In turn, `Cc1nc(-c2ccccc2)c(-c2ccccc2)n1CCCCCCNC(=O)Oc1ccc(F)c(F)c1` [Example 41, [6-(2-Methyl-4,5-diphenyl-imidazol-1-yl)-hexyl]-carbamic acid 3,4-difluoro-phenyl ester] registered an IC50 below 10 nM.

`Cc1nc(-c2ccc(F)cc2)c(-c2ccc(F)cc2)n1CCCCCCNC(=O)Oc1ccccc1F` [Example 43, {6-[4,5-Bis-(4-fluoro-phenyl)-2-methyl-imidazol-1-yl]-hexyl}-carbamic acid 2-fluoro-phenyl ester] displayed an IC50 below 10 nM.

In the case of `Cc1nc(-c2ccc(F)cc2)c(-c2ccc(F)cc2)n1CCCCCCNC(=O)Oc1c(F)cccc1F` [Example 44, {6-[4,5-Bis-(4-fluoro-phenyl)-2-methyl-imidazol-1-yl]-hexyl}-carbamic acid 2,6-difluoro-phenyl ester], the IC50 fell in the range of 10 to 100 nM.

Regarding `CCOC(=O)NCCCCCCn1c(C)nc(-c2ccccc2)c1-c1ccccc1` [Example 45, [6-(2-Methyl-4,5-diphenyl-imidazol-1-yl)-hexyl]-carbamic acid ethyl ester], the IC50 lay within 100 to 1000 nM.

In turn, `Cc1nc(-c2ccccc2)c(-c2ccccc2)n1CCCCCCNC(=O)O/N=C/c1ccccc1` [Example 46, Benzaldehyde, O-[6-(2-methyl-4,5-diphenyl-1H-imidazol-1-yl)hexylaminocarbonyl]oxime] showed an IC50 of 10 to 100 nM.

`Cc1nc(-c2ccccc2)c(-c2ccccc2)n1CCCCCCNC(=O)O/N=C/c1ccc(F)cc1` [Example 47, 4-Fluorobenzaldehyde,O-[6-(2-methyl-4,5-diphenyl-1H-imidazol-1-yl)hexylaminocarbonyl]oxime] had an IC50 of 10 to 100 nM.

Take `Cc1nc(-c2ccccc2)c(-c2ccccc2)n1CCCCCCNC(=O)O/N=C/c1ccccc1[N+](=O)[O-]` [Example 48, 2-Nitrobenzaldehye, O-[6-(2-methyl-4,5-diphenyl-1H-imidazol-1-yl)hexylaminocarbonyl]oxime]: the IC50 lay within 10 to 100 nM.

`Cc1nc(-c2ccccc2)c(-c2ccccc2)n1CCCCCCNC(=O)O/N=C/c1cccc([N+](=O)[O-])c1` [Example 49, 3-Nitrobenzaldehyde, O-[6-(2-methyl-4,5-diphenyl-1H-imidazol-1-yl)hexylaminocarbonyl]oxime] showed an IC50 of 10 to 100 nM.

Consider `Cc1nc(-c2ccccc2)c(-c2ccccc2)n1CCCCCCNC(=O)O/N=C/c1ccc([N+](=O)[O-])cc1` [Example 50, 4-Nitrobenzaldehyde, O-{6-(2-methyl-4,5-diphenyl-1H-imidazol-1-yl)hexylaminocarbonyl]oxime], for which the IC50 is 10 to 100 nM.

The compound `Cc1nc(-c2ccccc2)c(-c2ccccc2)n1CCCCCCNC(=O)O/N=C/c1cccnc1` [Example 51, 3-Pyridinecarboxaldehyde, O-[6-(2-methyl-4,5-diphenyl-1H-imidazol-1-yl)hexylaminocarbonyl]oxime] yielded an IC50 of 10 to 100 nM.

`Cc1nc(-c2ccccc2)c(-c2ccccc2)n1CCOc1ccc(NC(=O)Oc2ccc(F)c(F)c2)cc1` [Example 52, {4-[2-(2-Methyl-4,5-diphenyl-imidazol-1-yl)-ethoxy]-phenyl}-carbamic acid 3,4-difluoro-phenyl ester] gave an IC50 of 1000 to 10000 nM.

Consider `Cc1nc(-c2ccccc2)c(-c2ccccc2)n1CCOc1ccc(NC(=O)Oc2ccc(Cl)cc2)cc1` [Example 53, {4-[2-(2-Methyl-4,5-diphenyl-imidazol-1-yl)-ethoxy]-phenyl}-carbamic acid 4-chloro-phenyl ester], for which the IC50 lay in the range of 1000 to 10000 nM.

As for `Cc1nc(-c2ccccc2)c(-c2ccccc2)n1CCCOc1ccc(NC(=O)Oc2ccc(F)c(F)c2)cc1` [Example 55, {4-[3-(2-Methyl-4,5-diphenyl-imidazol-1-yl)-propoxy]-phenyl}-carbamic acid 3,4-difluoro-phenyl ester], the IC50 is 100 to 1000 nM.

`COc1ccc(OC(=O)Nc2ccc(OCCCn3c(C)nc(-c4ccccc4)c3-c3ccccc3)cc2)cc1` [Example 56, {4-[3-(2-Methyl-4,5-diphenyl-imidazol-1-yl)-propoxy]-phenyl}-carbamic acid 4-methoxy-phenyl ester] yielded an IC50 of 100 to 1000 nM.

Take `Cc1nc(-c2ccccc2)c(-c2ccccc2)n1CCCOc1ccc(NC(=O)Oc2ccc(Cl)cc2)cc1` [Example 57, {4-[3-(2-Methyl-4,5-diphenyl-imidazol-1-yl)-propoxy]-phenyl}-carbamic acid 4-chloro-phenyl ester]: the IC50 was 100 to 1000 nM.

`Cc1nc(-c2ccccc2)c(-c2ccccc2)n1CCCOc1ccc(NC(=O)Oc2cccc(Cl)c2)cc1` [Example 59, {4-[3-(2-Methyl-4,5-diphenyl-imidazol-1-yl)-propoxy]-phenyl}-carbamic acid 3-chloro-phenyl ester] had an IC50 of 100 to 1000 nM.

With `Cc1nc(-c2ccccc2)c(-c2ccccc2)n1CCOc1ccc(NC(=O)Oc2ccccc2)cc1` [Example 60, {4-[2-(2-Methyl-4,5-diphenyl-imidazol-1-yl)-ethoxy]-phenyl}-carbamic acid phenyl ester], the IC50 lay in the range of 1000 to 10000 nM.

In turn, `Cc1nc(-c2ccccc2)c(-c2ccccc2)n1CCOc1ccc(NC(=O)Oc2ccccc2F)cc1` [Example 61, {4-[2-(2-Methyl-4,5-diphenyl-imidazol-1-yl)-ethoxy]-phenyl}-carbamic acid 2-fluoro-phenyl ester] registered an IC50 of 1000 to 10000 nM.

`Cc1nc(-c2ccccc2)c(-c2ccccc2)n1CCOc1ccc(NC(=O)Oc2ccc(F)cc2)cc1` [Example 62, {4-[2-(2-Methyl-4,5-diphenyl-imidazol-1-yl)-ethoxy]-phenyl}-carbamic acid 4-fluoro-phenyl ester] showed an IC50 of 1000 to 10000 nM.

As for `Cc1nc(-c2ccccc2)c(-c2ccccc2)n1CCCOc1ccc(NC(=O)Oc2ccccc2)cc1` [Example 63, {4-[3-(2-Methyl-4,5-diphenyl-imidazol1-yl)-propoxy]-phenyl}-carbamic acid phenyl ester], the IC50 lay in the range of 1000 to 10000 nM.

Usually IC50 stands for the concentration that inhibits the measured activity by half. Read a low IC50 as inhibition by little substance.
